Laboratory results taken from EPA's ToxRefDB 2.

Assays:
[1] = tested on: rat; conditions: Combined chronic toxicity/carcinogenicity; sprague dawley; Inhalation; Whole-Body; dose end: 24 month; group: systemic; systemic / clinical chemistry / alanine aminotransferase (alt/sgpt) / alanine aminotransferase (alt/sgpt) + systemic / clinical chemistry / …
[2] = tested on: rat; conditions: Subchronic oral toxicity in rodents; sprague dawley; Inhalation; Whole-Body; dose end: 3 month; group: systemic; systemic / clinical chemistry / gamma glutamyl transferase (ggt) / gamma glutamyl transferase (ggt) + systemic / clinical chemistry / …
[3] = tested on: dog; conditions: Chronic toxicity; beagle; Oral; Feed; dose end: 12 month; group: systemic; systemic / clinical chemistry / alkaline phosphatase (alp/alk) / alkaline phosphatase (alp/alk) + systemic / organ weight / liver / absolute…
[4] = tested on: mouse; conditions: Subchronic oral toxicity in rodents, cd1, Feed, dose end: 13 week, group: systemic, systemic / organ weight / liver / absolute + systemic / organ weight / liver / relative to body weight + systemic / pathology microscopic / …
[5] = tested on: mouse; conditions: Carcinogenicity, cd1, Oral, Feed, dose end: 80 week, group: systemic
[6] = tested on: rat; conditions: Combined chronic toxicity/carcinogenicity, fischer, Oral, Feed, dose end: 24 month, group: systemic
[7] = tested on: rat; conditions: Subchronic oral toxicity in rodents, fischer, Feed, dose end: 90 day, group: systemic
[8] = tested on: dog; conditions: Subchronic oral toxicity in nonrodent, beagle, Capsule, dose end: 90 day, group: systemic, systemic / clinical chemistry / alanine aminotransferase (alt/sgpt) / alanine aminotransferase (alt/sgpt) + systemic / clinical chemistry / …
[9] = tested on: rat; conditions: Combined chronic toxicity/carcinogenicity, wistar, Oral, Water, dose end: 104 week, group: systemic
[10] = tested on: mouse; conditions: Carcinogenicity, cd1, Oral, Water, dose end: 104 week, group: systemic
[11] = tested on: rat; conditions: Prenatal developmental toxicity study, wistar, Oral, Gavage/Intubation, dose end: 17 GD
[12] = tested on: rabbit; conditions: Prenatal developmental toxicity study, new zealand white, Oral, Gavage/Intubation, dose end: 20 GD
[13] = tested on: dog; conditions: Chronic toxicity, beagle, Oral, Capsule, dose end: 52 week, group: systemic
[14] = systemic / in life observation / body weight / body weight + systemic / in life observation / body weight / body weight gain + systemic / …
[15] = systemic / in life observation / body weight / body weight gain + systemic / organ weight / kidney / relative to body weight
[16] = systemic / in life observation / body weight / body weight gain + systemic / organ weight / kidney / relative to body weight + systemic / …
[17] = systemic / in life observation / body weight / body weight gain + systemic / pathology microscopic / liver / hypertrophy + systemic / in …
[18] = systemic / in life observation / body weight / body weight gain + systemic / pathology microscopic / liver / hypertrophy + systemic / organ …
[19] = systemic / clinical chemistry / cholesterol / cholesterol + systemic / clinical chemistry / triglycerides / triglycerides + systemic / …
[20] = systemic / in life observation / food consumption / food consumption + systemic / in life observation / water consumption / water …
[21] = systemic / pathology microscopic / liver / sarcoma + systemic / pathology gross / full gross necropsy / sarcoma
[22] = group: developmental, developmental / developmental malformation / bone / unossified + developmental / developmental malformation / other / other + systemic / in …
[23] = group: maternal, systemic / in life observation / body weight / body weight gain + systemic / in life observation / food consumption / food consumption + …
[24] = group: developmental, developmental / developmental malformation / bone / enlarge suture + developmental / developmental malformation / bone / incomplete …
[25] = systemic / clinical chemistry / alanine aminotransferase (alt/sgpt) / alanine aminotransferase (alt/sgpt) + systemic / pathology microscopic…
[26] = systemic / clinical chemistry / aspartate aminotransferase (ast/sgot) / aspartate aminotransferase (ast/sgot) + systemic / hematology / …

C=CN1CCCC1=O [N-Vinyl-2-pyrrolidone]
LEL [1]: 5 ppm
LOAEL [1]: > 20 ppm
NEL [1]: < 5 ppm
NOAEL [1]: ≥ 20 ppm
LEL [2]: 45 ppm
LOAEL [2]: > 45 ppm
NEL [2]: < 45 ppm
NOAEL [2]: ≥ 45 ppm

Fc1ccc(Oc2ccnc3cc(Cl)cc(Cl)c23)cc1 [Quinoxyfen]
LEL [3]: 200 mg/kg/day
LOAEL [3]: 200 mg/kg/day
NEL [3]: 20 mg/kg/day
NOAEL [3]: 20 mg/kg/day
LEL [4]: 500 mg/kg/day
LOAEL [4]: 500 mg/kg/day
NEL [4]: 100 mg/kg/day
NOAEL [4]: 100 mg/kg/day
LOAEL ([5]; systemic / in life observation / body weight / body weight + systemic / in life observation / body weight / body weight gain): 250 mg/kg/day
LEL [5, 14]: 250 mg/kg/day
NEL [5, 14]: 80 mg/kg/day
NOAEL [5, 14]: 80 mg/kg/day
NEL [6, 15]: 20 mg/kg/day
NOAEL [6, 15]: 20 mg/kg/day
LEL [6, 16]: 80 mg/kg/day
LOAEL [6, 16]: 80 mg/kg/day
NEL [7, 17]: 10 mg/kg/day
NOAEL [7, 17]: 10 mg/kg/day
LEL [7, 18]: 100 mg/kg/day
LOAEL [7, 18]: 100 mg/kg/day

CNC(=S)[S-].[Na+] [Metam-sodium]
LEL [8]: 1 mg/kg/day
LOAEL [8]: 1 mg/kg/day
NEL [8]: < 1 mg/kg/day
NOAEL [8]: < 1 mg/kg/day
LOAEL [9, 19]: 12 mg/kg/day
NOAEL [9, 19]: 3.9 mg/kg/day
LEL ([9]; systemic / in life observation / body weight / body weight gain): 6.2 mg/kg/day
NEL ([9]; systemic / in life observation / body weight / body weight gain + systemic / clinical chemistry / cholesterol / cholesterol + systemic / …): 2.3 mg/kg/day
LOAEL [10, 20]: 6.5 mg/kg/day
NOAEL [10, 20]: 1.6 mg/kg/day
LEL [10, 21]: 1.6 mg/kg/day
NEL [10, 21]: < 1.6 mg/kg/day
LOAEL ([11]; group: developmental, developmental / developmental malformation / bone / unossified + developmental / developmental malformation / other / other): 20 mg/kg/day
LEL [11, 22]: 20 mg/kg/day
NEL [11, 22]: 5 mg/kg/day
NOAEL [11, 22]: 5 mg/kg/day
LOAEL ([11]; group: maternal, systemic / in life observation / body weight / body weight gain + systemic / in life observation / food consumption / food consumption): 20 mg/kg/day
LEL [11, 23]: 20 mg/kg/day
NEL [11, 23]: 5 mg/kg/day
NOAEL [11, 23]: 5 mg/kg/day
LEL [12, 24]: 20 mg/kg/day
LOAEL [12, 24]: 20 mg/kg/day
NEL [12, 24]: 5 mg/kg/day
NOAEL [12, 24]: 5 mg/kg/day
LEL [12, 23]: 20 mg/kg/day
LOAEL [12, 23]: 20 mg/kg/day
NEL [12, 23]: 5 mg/kg/day
NOAEL [12, 23]: 5 mg/kg/day
LOAEL [13, 25]: 1 mg/kg/day
NOAEL [13, 25]: 0.1 mg/kg/day
LEL [13, 26]: 0.05 mg/kg/day
NEL [13, 26]: < 0.05 mg/kg/day
